From patent US9980951B2, “Image guided therapy for cancer” (UNIVERSITY OF IOWA RESEARCH FOUNDATION, priority 2015, dated 2018)
Where “and” joins values, the source holds several entries; their conditions need not be identical. Identical values can stand only once.

What was measured:
A375 melanoma cells [1] = assay: Confocal microscopy, mitochondrial accumulation and colocalization with Mito Tracker Red; type: cell-based, human; settings: A375, 1 μM, 3 h
Procedure: (§1) Confocal microscopy was used to determine that 10-TPVP preferentially accumulates in the mitochondria of melanoma cells and fluoresces upon aggregation in mitochondrial membranes of melanoma cells relative to nonmalignant cells (FIG. 1). […] NHF cells have a basal level of 10-TPVP accumulation, supporting the hypothesis that TPVP derivatives preferentially accumulate by targeting the hyperpolarized mitochondrial membrane (FIG. 1; Column II).
(§2) Experiments were performed using human metastatic BRAFV600E mutant A375 (ATCC CRL-1619) human melanoma cells, metastatic BRAFV600E mutant SK-Mel-3 (ATCC HTB-69) human melanoma cells isolated from a lymph node metastasis, and nonmetastatic normal human fibroblasts (NHFs) provided by the Coriell Institute (AG13442). All cells were cultured at 21% O2 at 37° C. in a humidified 5% CO2 incubator. Cells were detached with 0.25% trypsin-EDTA. A375 and NHF cells were cultured in high-glucose DMEM medium supplemented with 1% PenStrep and 10% FBS. SK-Mel-3 cells were cultured in high-glucose McCoy's 5A medium supplemented with 1% PenStrep and 15% FBS. All medium components were purchased from Gibco.
(§3) A375, SK-Mel-3, and NHF cells were cultured at a density of 2.5×104, 5×104, or 7.5×104, respectively, on a 4 well glass chamber slide for 24 h prior to exposure to test compounds. […]

SK-Mel-3 melanoma cells [2] = assay: as above; type: cell-based, human; settings: SK-Mel-3, 1 μM, 3 h
Procedure: as §1, §2, §3

[3] = tested on: normal human fibroblasts (NHFs); assay: as above; type: cell-based; settings: 1 μM, 3 h
Procedure: as §1, §2, §3

A375 melanoma cells [4] = assay: DHE oxidation; type: cell-based, human; settings: A375, 10 μM, 1 h, normalized to untreated control
Text: (§4) Oxidation-sensitive dihydroethidium (DHE) was used to determine if mitochondrial-accumulated TPVP derivatives alter the oxidation state of melanoma cells (FIG. 3). DHE is a blue-fluorescent superoxide-sensitive probe that accumulates in the cytosol of healthy cells. However, upon reaction with superoxide, DHE intercalates with DNA and forms a red-fluorescent product (2-hydroxyethidium). Therefore, the shift to red fluorescence is an indicator of the change in the redox state of the cell.
as §2
(§5) A375 cells were plated in a black, clearbottom 96 well plate at a density of 1.5×10^4 cells per well. […] Cells were analyzed using a spectrophotometer at 590 nm.

SK-Mel-3 melanoma cells [5] = assay: DHE oxidation; type: cell-based, human; settings: SK-Mel-3, 10 μM, 1 h, normalized to untreated control
Text: as §4, §2, §5

[6] = tested on: normal human fibroblasts (NHFs); assay: DHE oxidation; type: cell-based; settings: 10 μM, 1 h
Text: as §4, §2, §5

[7] = tested on: normal human fibroblasts (NHFs); assay: Clonogenic survival assay; type: cell-based; settings: NHF, 5.0 μM, 24 h
Procedure: To further test the hypothesis that TPVP derivatives can be designed to decrease viability in melanoma cells relative to normal cells, clonogenic survival assays were performed (FIG. 6). The clonogenic cell survival assay is used often as a measure of the ability of cells to proliferate indefinitely. In these studies, cells were exposed to varying concentrations of TPVP derivatives for 24 h. After exposure to cytotoxic compounds, cells were collected, counted, and reseeded at a low density. The cells then undergo a series of doublings, forming cell colonies. These colonies were then counted, and the resulting cell survival curve reports the dose of the agent used to produce an insult and the fraction of cells retaining their ability to reproduce. […] Specifically, 18:2-TPVP decreases clonogenic survival to <50% at 5.0 μM for both A375 and SK-Mel-3 cells and <20% at 7.5 μM. […]
A375 cells were plated in 60 mm culture dishes at a density of 1.5×10^5 cells per dish. […] After the exposure period, cells were collected, counted, and plated at either 500 (A375 and NHF) or 3000 (SK-Mel-3) cells per 60 mm dish. […]

[8] = tested on: normal human fibroblasts (NHFs); assay: JC-1 mitochondrial membrane potential assay; type: cell-based; settings: 10 μM, 1 h
Text: (§6) JC-1 mitochondrial membrane potential assays were used to determine that TPVP derivatives are designed to accumulate in melanoma cell mitochondria and disrupt the membrane potential of melanoma cells relative to nonmalignant cells (FIG. 2).
(§7) Mitochondrial membrane potential is an important parameter of mitochondrial function. In healthy cells (with high mitochondrial potential), JC-1 spontaneously forms complexes known as J-aggregates that fluoresce in the red region. In unhealthy cells with a low mitochondria membrane potential or cells whose membrane integrity is disrupted with uncoupling agents (e.g., FCCP), JC-1 remains in the monomeric form, with fluorescence in the green region. Therefore, the ratio of Jaggregate to monomer fluorescence is an indicator of mitochondrial membrane potential and cellular health.
Experiments were performed using human metastatic BRAFV600E mutant A375 (ATCC CRL-1619) human melanoma cells, metastatic BRAFV600E mutant SK-Mel-3 (ATCC HTB-69) human melanoma cells isolated from a lymph node metastasis, and nonmetastatic normal human fibroblasts (NHFs) provided by the Coriell Institute (AG13442). All cells were cultured at 21% O2 at 37° C. in a humidified 5% CO2 incubator. […]
A375 cells were plated in a black, clear-bottom 96 well plate at a density of 1.5×10^4 cells per well. […] Cells were washed and analyzed in PBS using a spectrophotometer at 530 and 590 nm.

A375 melanoma cells [9] = assay: Clonogenic survival assay; type: cell-based, human; settings: 24 h; for clonogenic survival relative to the untreated control: A375, 5.0, 7.5, and 10 μM
Procedure: (§8) To further test the hypothesis that TPVP derivatives can be designed to decrease viability in melanoma cells relative to normal cells, clonogenic survival assays were performed (FIG. 6). The clonogenic cell survival assay is used often as a measure of the ability of cells to proliferate indefinitely. In these studies, cells were exposed to varying concentrations of TPVP derivatives for 24 h. After exposure to cytotoxic compounds, cells were collected, counted, and reseeded at a low density. The cells then undergo a series of doublings, forming cell colonies. These colonies were then counted, and the resulting cell survival curve reports the dose of the agent used to produce an insult and the fraction of cells retaining their ability to reproduce. […] Specifically, 18:2-TPVP decreases clonogenic survival to <50% at 5.0 μM for both A375 and SK-Mel-3 cells and <20% at 7.5 μM.
as §2
(§9) A375 cells were plated in 60 mm culture dishes at a density of 1.5×10^5 cells per dish. SKMel-3 and NHF cells were plated in 60 mm culture dishes at a density of 2.5×10^5 cells per dish. After 48 h, cells were treated with 1.0, 2.5, 5.0, 7.5, or 10 μM of PTVP, DPDVP, or 18:2-TPVP for 24 h. After the exposure period, cells were collected, counted, and plated at either 500 (A375 and NHF) or 3000 (SK-Mel-3) cells per 60 mm dish. Following a 2 week incubation, medium was removed and colonies fixed with ethanol and stained with Coommassie Brilliant Blue. Data were normalized to each untreated control, and the surviving fraction was reported.

SK-Mel-3 melanoma cells [10] = assay: Clonogenic survival assay; type: cell-based, human; settings: 24 h; for clonogenic survival relative to the untreated control: SK-Mel-3, 5.0, 7.5, and 10 μM
Procedure: as §8, §2, §9

A375 melanoma cells [11] = assay: JC-1 mitochondrial membrane potential assay; type: cell-based, human; settings: A375, 10 μM, 1 h
Text: as §6, §7, §2
(§10) A375 cells were plated in a black, clear-bottom 96 well plate at a density of 1.5×10^4 cells per well. SK-Mel-3 and NHF cells were plated in a black, clear-bottom 96 well plate at a density of 2.5×10^4 cells […]. After 24 h, cells were treated with 2.5, 5.0, or 10 μM 18:2-TPVP or DPDVP for 1 h. Cells were then washed and incubated with 2.0 μM JC-1 (Cayman) in PBS containing 5 mM pyruvate (Gibco) for 1 h. Control dishes were treated with 1.0 μM FCCP (Sigma-Alrich) 30 min prior to measurement. Cells were washed and analyzed in PBS using a spectrophotometer at 530 and 590 nm.

SK-Mel-3 melanoma cells [12] = assay: JC-1 mitochondrial membrane potential assay; type: cell-based, human; settings: SK-Mel-3, 10 μM, 1 h
Text: as §6, §7, §2, §10

A375 melanoma cells [13] = assay: Intracellular ATP measurement (CellTiter-Glo luciferase assay); type: cell-based, human; settings: 24 h; for concentration of ATP relative to the untreated control: A375, 2.5, 5.0, or 10 μM
Procedure: (§11) TPVP derivatives embed in the mitochondria of malignant cells and increase the oxidation state relative to NHFs. Therefore, intracellular ATP levels were measured to determine the potential impact of TPVP-based treatment on cell viability (FIG. 4). This platereader-based luciferase assay is a selective method for determining the number of viable cells by quantifying the ATP-dependent oxygenation of luciferin. […] Specifically, A375 ATP levels were depleted from 1.5 mM to less than 0.8 mM after exposure to all three compounds at 10 μM.
as §2
(§12) A375 cells were plated in 60 mm culture dishes at a density of 1.5×10^5 cells per dish. SK-Mel-3 and NHF cells were plated in 60 mm culture dishes at a density of 2.5×10^5 cells per dish. After 48 h, cells were exposed to 2.5, 5.0 or 10 μM of PTVP, DPDVP, or 18:2-TPVP for 24 h and analyzed for intracellular ATP content using the CellTiter-Glo Luminescent Cell Viability Assay (Promega).

SK-Mel-3 melanoma cells [14] = assay: as above; type: cell-based, human; settings: SK-Mel-3, 5.0 μM and 10 μM, 24 h
Procedure: as §11, §2, §12

| SMILES | decrease of JC-1 aggregate to monomer fluorescence ratio [8] | clonogenic survival relative to the untreated control (A375 melanoma cells [9]) | clonogenic survival relative to the untreated control (SK-Mel-3 melanoma cells [10]) | decrease of JC-1 aggregate to monomer fluorescence ratio (A375 melanoma cells [11]) | decrease of JC-1 aggregate to monomer fluorescence ratio (SK-Mel-3 melanoma cells [12]) | concentration of ATP relative to the untreated control (A375 melanoma cells [13]) | also measured |
| --- | --- | --- | --- | --- | --- | --- | --- |
| CCCCCCCCCC[n+]1ccc(C(=C(c2ccccc2)c2ccccc2)c2ccccc2)cc1.[Br-] [Compound 10-TPVP, 1-Decyl-4-(1,2,2-triphenylvinyl)pyridin-1-ium Bromide] |  |  |  |  |  |  | accumulation in cells by confocal microscopy (A375 melanoma cells [1]): easily observable; accumulation in cells by confocal microscopy (SK-Mel-3 melanoma cells [2]): easily observable; accumulation in mitochondria by confocal microscopy [3]: does not significantly accumulate; increase of DHE oxidation (A375 melanoma cells [4]): 3 fold; increase of DHE oxidation (SK-Mel-3 melanoma cells [5]): 2 fold; DHE fluorescence intensity [6]: does not significantly alter |
| CCCCC/C=C\C/C=C\CCCCCCCC[n+]1ccc(C(=C(c2ccccc2)c2ccccc2)c2ccccc2)cc1.[Br-] [18:2-TPVP, 1-((9Z,12Z)-Octadeca-9,12-dien-1-yl)-4-(1,2,2-triphenylvinyl)pyridin-1-ium Bromide] | 20% | significantly decrease | significantly decrease | 55% | 40% | significantly decreases | clonogenic survival [7]: 75%; clonogenic survival (A375 melanoma cells [9]; A375, 5.0 μM): < 50% and 40%; clonogenic survival (A375 melanoma cells [9]; A375, 7.5 μM): < 20%; clonogenic survival relative to NHFs (A375 melanoma cells [9]; A375, 2.5, 5.0, 7.5, and 10 μM): significant decrease; clonogenic survival (SK-Mel-3 melanoma cells [10]; SK-Mel-3, 5.0 μM): < 50% and 30%; clonogenic survival (SK-Mel-3 melanoma cells [10]; SK-Mel-3, 7.5 μM): < 20%; clonogenic survival relative to NHFs (SK-Mel-3 melanoma cells [10]; SK-Mel-3, 2.5, 5.0, 7.5, and 10 μM): significant decrease; intracellular ATP relative to NHFs (A375 melanoma cells [13]; A375, all concentrations (1, 5, or 10 μM)): significantly decreases; intracellular ATP relative to NHFs (SK-Mel-3 melanoma cells [14]): significantly decreases |
| CCCCCCCCCC[n+]1ccc(C(=C(c2cc[n+](CCCCCCCCCC)cc2)c2cc[n+](CCCCCCCCCC)cc2)c2ccccc2)cc1.[Br-].[Br-].[Br-] [PTVP, 4,4′,4″-(2-Phenylethene-1,1,2-triyl)tris(1-decylpyridin-1-ium) Bromide] |  | significantly decrease | significantly decrease |  |  | significantly decreases |  |
| CCCCCCCCCC[n+]1ccc(C(=C(c2ccccc2)c2ccccc2)c2cc[n+](CCCCCCCCCC)cc2)cc1.[Br-].[Br-] [DPDVP, 4,4′-(2,2-Diphenylethene-1,1-diyl)bis(1-decylpyridin-1-ium) Bromide] | 10% | significantly decrease | significantly decrease | 50% | 30% | significantly decreases |  |
